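48-hour exposure; five concentrations; linearly interpolated endpoints. GI50: concentration for 50% inhibition of growth. TGI is the concentration that stops growth completely.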
How the values were obtained:
Assay in all cases: DTP human tumour cell line panel, 48 h
[1] = system: UACC-62 melanoma
[2] = system: SF-268 CNS
[3] = system: A498 renal
[4] = system: CCRF-CEM leukemia
[5] = system: HS 578T breast
[6] = system: HOP-92 NSCLC
[7] = system: OVCAR-5 ovarian
[8] = system: COLO 205 colon
[9] = system: K-562 leukemia
[10] = system: PC-3 prostate
[11] = system: M14 melanoma
[12] = system: MALME-3M melanoma
[13] = system: T-47D breast
[14] = system: SNB-19 CNS
[15] = system: OVCAR-8 ovarian
[16] = system: U251 CNS
[17] = system: MDA-MB-435
[18] = system: UO-31 renal
[19] = system: SR leukemia
[20] = system: MOLT-4 leukemia
[21] = system: LOX IMVI melanoma
[22] = system: HCT-15 colon
[23] = system: SK-MEL-5 melanoma
[24] = system: RPMI-8226 leukemia
[25] = system: HCT-116 colon
[26] = system: SK-MEL-28 melanoma
[27] = system: HT29 colon
[28] = system: MCF7 breast
[29] = system: SF-539 CNS
[30] = system: SK-MEL-2 melanoma
[31] = system: NCI/ADR-RES ovarian
[32] = system: NCI-H226 lung
[33] = system: MDA-MB-231 breast
[34] = system: IGROV1 ovarian
[35] = system: NCI-H23 lung
[36] = system: NCI-H522 lung
[37] = system: BT-549 breast
[38] = system: EKVX NSCLC
[39] = system: 786-0 renal
[40] = system: KM12 colon
[41] = system: HL-60(TB) leukemia
[42] = system: ACHN renal
[43] = system: SNB-75 CNS
[44] = system: SN12C renal
[45] = system: A549 NSCLC
[46] = system: TK-10 renal
[47] = system: NCI-H460 lung
[48] = system: SW-620 colon
[49] = system: OVCAR-4 ovarian
[50] = system: RXF 393 renal
[51] = system: DU-145 prostate
[52] = system: SK-OV-3 ovarian
[53] = system: HCC-2998 colon
[54] = system: SF-295 CNS
[55] = system: UACC-257 melanoma
[56] = system: OVCAR-3 ovarian
[57] = system: HOP-62 NSCLC
[58] = system: CAKI-1 renal

Cc1nccc2c3ccc(OCc4cn(-c5ccc(Cl)cc5)nn4)cc3n(CCCc3ccccc3)c12
GI50 [1]: 1890 nM | TGI [1]: 7.43 µM | GI50 [2]: 4.66 µM | TGI [2]: 17.5 µM | GI50 [3]: > 33300 nM | TGI [3]: > 33.3 µM | GI50 [4]: 1750 nM | TGI [4]: > 33.3 µM | GI50 [5]: 844 nM | TGI [5]: 2.48 µM | GI50 [6]: 4.98 µM | TGI [6]: 21.3 µM | GI50 [7]: 7.34 µM | TGI [7]: > 33.3 µM | GI50 [8]: 4220 nM | TGI [8]: > 33.3 µM | GI50 [9]: 2960 nM | TGI [9]: > 33.3 µM | GI50 [10]: 2420 nM | TGI [10]: 16.6 µM | GI50 [11]: 616 nM | TGI [11]: 1260 nM | GI50 [12]: 745 nM | TGI [12]: 2790 nM | GI50 [13]: 20.6 µM | TGI [13]: > 33.3 µM | GI50 [14]: > 33300 nM | TGI [14]: > 33300 nM | GI50 [15]: 1210 nM | TGI [15]: 4.22 µM | GI50 [16]: 8.82 µM | TGI [16]: > 33.3 µM | GI50 [17]: 2000 nM | TGI [17]: > 33.3 µM | GI50 [18]: 545 nM | TGI [18]: 1370 nM | GI50 [19]: 789 nM | TGI [19]: 2.25 µM | GI50 [20]: 6.97 µM | TGI [20]: > 33.3 µM | GI50 [21]: 1080 nM | TGI [21]: 4.88 µM | GI50 [22]: 2570 nM | TGI [22]: > 33300 nM | GI50 [23]: 25.8 µM | TGI [23]: > 33.3 µM | GI50 [24]: 2450 nM | TGI [24]: > 33.3 µM | GI50 [25]: 2140 nM | TGI [25]: > 33.3 µM | GI50 [26]: 1300 nM | TGI [26]: 5.71 µM | GI50 [27]: 3070 nM | TGI [27]: > 33.3 µM | GI50 [28]: 1490 nM | TGI [28]: > 33.3 µM | GI50 [29]: 4240 nM | TGI [29]: 10.6 µM | GI50 [30]: > 33300 nM | TGI [30]: > 33.3 µM | GI50 [31]: 644 nM | TGI [31]: 1720 nM | GI50 [32]: 1.72 µM | TGI [32]: 9.12 µM | GI50 [33]: 6.83 µM | TGI [33]: > 33.3 µM | GI50 [34]: 6.93 µM | TGI [34]: > 33.3 µM | GI50 [35]: 19.7 µM | TGI [35]: > 33.3 µM | GI50 [36]: > 33300 nM | TGI [36]: > 33300 nM | GI50 [37]: 7.35 µM | TGI [37]: 19.6 µM | GI50 [38]: 12.3 µM | TGI [38]: > 33300 nM | GI50 [39]: 649 nM | TGI [39]: 1390 nM | GI50 [40]: 6.21 µM | TGI [40]: > 33.3 µM | GI50 [41]: 1880 nM | TGI [41]: 8.37 µM | GI50 [42]: 1570 nM | TGI [42]: 8.5 µM | GI50 [43]: 565 nM | TGI [43]: 1570 nM | GI50 [44]: 8.81 µM | TGI [44]: 31.2 µM | GI50 [45]: 2300 nM | TGI [45]: > 33.3 µM | GI50 [46]: 2000 nM | TGI [46]: > 33300 nM | GI50 [47]: 2740 nM | TGI [47]: 17.9 µM | GI50 [48]: 2200 nM | TGI [48]: > 33.3 µM | GI50 [49]: 4340 nM | TGI [49]: 10.4 µM | GI50 [50]: 4.45 µM | TGI [50]: 11.6 µM | GI50 [51]: 4330 nM | TGI [51]: > 33300 nM | GI50 [52]: > 33300 nM | TGI [52]: > 33300 nM | GI50 [53]: 6.13 µM | TGI [53]: > 33.3 µM | GI50 [54]: 4.81 µM | TGI [54]: 12.7 µM | GI50 [55]: 4.58 µM | TGI [55]: 13.4 µM | GI50 [56]: 6.68 µM | TGI [56]: 17.7 µM

CC#C/C(=N\OC[C@H]1COCCN1)c1ccc2ncnc(Nc3ccc(OCc4cccc(F)c4)c(Cl)c3)c2c1
GI50 [1]: 1680 nM | TGI [1]: 3.11 µM | GI50 [3]: 2070 nM | TGI [3]: 7.7 µM | GI50 [4]: 1730 nM | TGI [4]: 3.85 µM | GI50 [5]: 1890 nM | TGI [5]: 4.46 µM | GI50 [6]: 1.14 µM | TGI [6]: 2.48 µM | GI50 [7]: 1.65 µM | TGI [7]: 4.27 µM | GI50 [8]: 1770 nM | TGI [8]: 3.33 µM | GI50 [10]: 1810 nM | TGI [10]: 3.98 µM | GI50 [11]: 1760 nM | TGI [11]: 3590 nM | GI50 [13]: 0.0582 µM | TGI [13]: 4.47 µM | GI50 [14]: 1300 nM | TGI [14]: 2690 nM | GI50 [15]: 1760 nM | TGI [15]: 4.27 µM | GI50 [16]: 1.71 µM | TGI [16]: 3.22 µM | GI50 [17]: 1670 nM | TGI [17]: 3.1 µM | GI50 [18]: 1130 nM | TGI [18]: 2410 nM | GI50 [19]: 1680 nM | TGI [19]: 5.34 µM | GI50 [20]: 1.8 µM | TGI [20]: 3.91 µM | GI50 [21]: 1750 nM | TGI [21]: 3.29 µM | GI50 [57]: 3 µM | TGI [57]: 11.3 µM | GI50 [22]: 1410 nM | TGI [22]: 2810 nM | GI50 [23]: 1.85 µM | TGI [23]: 3.45 µM | GI50 [24]: 1660 nM | TGI [24]: 3.81 µM | GI50 [25]: 1690 nM | TGI [25]: 3.42 µM | GI50 [26]: 1770 nM | TGI [26]: 3.34 µM | GI50 [27]: 1620 nM | TGI [27]: 3.09 µM | GI50 [28]: 1570 nM | TGI [28]: 3.05 µM | GI50 [29]: 1680 nM | TGI [29]: 3.2 µM | GI50 [30]: 1970 nM | TGI [30]: 3.61 µM | GI50 [31]: 1270 nM | TGI [31]: 2870 nM | GI50 [32]: 12 µM | TGI [32]: 40.3 µM | GI50 [33]: 1.72 µM | TGI [33]: 3.14 µM | GI50 [35]: 1.74 µM | TGI [35]: 3.41 µM | GI50 [36]: 393 nM | TGI [36]: 2250 nM | GI50 [37]: 6.06 µM | TGI [37]: 20.5 µM | GI50 [38]: 0.343 µM | TGI [38]: 2440 nM | GI50 [39]: 1520 nM | TGI [39]: 3070 nM | GI50 [41]: 2040 nM | TGI [41]: 4.57 µM | GI50 [43]: 1460 nM | TGI [43]: 2820 nM | GI50 [45]: 1640 nM | TGI [45]: 9.85 µM | GI50 [46]: 33.5 nM | TGI [46]: 1480 nM | GI50 [49]: 1520 nM | TGI [49]: 3.16 µM | GI50 [51]: 1100 nM | TGI [51]: 2360 nM | GI50 [58]: 183 nM | TGI [58]: 10.4 µM | GI50 [52]: 17.6 nM | TGI [52]: 1350 nM | GI50 [53]: 1.84 µM | TGI [53]: 3.41 µM | GI50 [54]: 1.72 µM | TGI [54]: 3.26 µM | GI50 [55]: 1.85 µM | TGI [55]: 3.45 µM | GI50 [56]: 1.43 µM | TGI [56]: 2.94 µM
